# Assay results published in patent US20100248272A1, “Method for identifying Smk box riboswitch modulating compounds” (Cornell University, priority 2009, published 2010).
# pKd: −log10 of the molar value. Values joined by “and” are separate entries in the source; they are usually repeats but may differ in a detail not shown here. Identical values can stand only once. “Also recorded” adds a separate entry of the source.
# What was measured:
# [1] = tested on: E. faecalis metK-lacZ fusion WT; details: cells grown in the presence of high methionine concentrations; previously shown; cited from earlier work
# [2] = tested on: E. faecalis metK-lacZ fusion A93C
# Procedure: (§1) In this experiment, in vivo lacZ reporter gene assays were conducted as previously described (R. T. Fuchs, et al., 2006, Ibid. and R. T. Fuchs, et al., 2007, Ibid.). Enterococcus faecalis metK leader region constructs, which included the first 15 nt of the coding region, were positioned downstream of the highly expressed B. subtilis glyQS promoter. The resulting DNA fragment was inserted into a lacZ fusion vector (pFG328) to generate an in-frame metK-lacZ translational fusion in which the first five codons of metK were fused to codon 18 of lacZ. The constructs were introduced into the chromosome of B. subtilis strain BR151 (metB10 lys-3trpC2) by integration into an SPβ prophage. Bacillus subtilis strains containing the lacZ fusions were grown at 37° C. in Spizizen minimal medium containing methionine ([…]) until early exponential growth. The cells were harvested by centrifugation at 8,000 g and resuspended in Spizizen medium either with or without methionine, and samples were collected at 1-h intervals and assayed for β-galactosidase activity after toluene permeabilization of the cells.
# [3] = tested on: E. faecalis metK-lacZ fusion C24G
# Procedure: as §1
# [4] = tested on: E. faecalis metK-lacZ fusion C25U + G90A
# Procedure: as §1
# [5] = tested on: E. faecalis metK-lacZ fusion C24U + G91A
# Procedure: as §1
# [6] = tested on: E. faecalis metK-lacZ fusion WT
# Procedure: as §1
# [7] = tested on: E. faecalis metK-lacZ fusion U22G + A93C
# Procedure: as §1
# [8] = tested on: E. faecalis metK-lacZ fusion U22G
# Procedure: as §1
# [9] = tested on: E. faecalis metK-lacZ fusion C24U
# Procedure: as §1
# [10] = tested on: E. faecalis metK-lacZ fusion C25U
# Procedure: as §1
# [11] = tested on: wild-type 15-118 metK leader RNA (bipartite, 2-AP at A29); experiment: Kd measurement by 2-AP fluorescence quenching; assay type: binding, E. faecalis; details: for quenching of 2-AP fluorescence: wild-type RNA
# Procedure: (§2) FIG. 11. […] Increasing concentrations of SAM were added to bipartite metK leader RNA containing an internal 2-AP modification at residue A29. 2-AP fluorescence at steady-state was measured at 375 nm with an excitation wavelength of 310 nm. […] Percent quenching (ΔF/F0×100) represents the change in fluorescence normalized to the initial fluorescence observed in the absence of SAM.
# (§3) For this, a bipartite RNA comprised of two half RNAs was used, which corresponds to positions 15-46 and 47-118. The two RNA halves are predicted to anneal through extensive base pairing in the P1-P3 helices to form the full-length metK leader RNA corresponding to positions 15-118, with a nick immediately upstream of residue G47 at the top of the P3 stein loop.
# (§4) A 2-aminopurine (2-AP) modification was incorporated into the upstream RNA at residue A29 to monitor local conformational changes occurring at this position in response to SAM binding using florescence spectroscopy.
# [12] = tested on: SMK box riboswitch; experiment: Competition binding assay SAM versus SAH; parameters: species or system E. faecalis; details: >100-fold excess of SAH over SAM
# Excerpt: FIGS. 6A, 6B. Effects of SMK box riboswitch mutagenesis on SAM binding and apparent SAM binding constant (Ka) determination. (A) Effects of mutation (with s.d.) on SAM binding by size-exclusion filtration assay, as described. (B) SAM and SAH Kd determination by competition binding assay.
# (§5) The Kd value for the full-length SMK transcript was further confirmed by fluorescence-quenching assays, as described below and shown in FIG. 11.
# [13] = tested on: 30S ribosomal subunit on the SMK box mRNA; experiment: Ribosome toeprinting analysis; assay type: biochemical; details: in the presence of ligand
# [14] = tested on: E. faecalis SMK box A73G mutant RNA; experiment: In vitro SAM binding assay (size-exclusion filtration); details: A73G mutation
# Excerpt: (§6) DNA templates corresponding to positions 15-118 (relative to the predicted transcription start site) of the E. faecalis metK leader were constructed by ligating overlapping pairs of complementary oligonucleotides, including a T7 RNA polymerase promoter sequence, as previously described (M. R. Yousef, et al., RNA, 9, 1148-1156 (2003) and B. A., McDaniel, et al., Mol. Microbiol., 57, 1008-1021 (2005)). Ligated products were amplified by PCR and RNAs were synthesized by T7 RNA polymerase transcription using an AmpliScribe T7 High Yield Transcription Kit (Epicentre Biotechnologies). RNAs (3 μM) in 1× transcription buffer (F. J. Grundy, et al., Nucleic Acids Res., 30, 1646-1655 (2002)) were heated to 65° C. for 5 minutes and slow-cooled to 40° C., followed by addition of radiolabeled SAM (3 μM [methyl-3H]-SAM, 15 Ci mmol^−1; GE Healthcare) in a total reaction volume of 40 μL, Binding reactions were incubated at room temperature (20-25° C.) for 15 minutes followed by passage through a Nanosep 10K Omega filter (Pall Life Sciences) by centrifugation at 14,000 g for 2.5 minutes. Filters were washed four times with 40 μL 1× transcription buffer to remove unbound SAM, and material retained by the filter was collected, mixed with Packard BioScience Ultima Gold scintillation fluid, and counted in a Packard Tri-Carb 2100TR liquid scintillation counter. No SAM was retained by the filter in the absence of RNA.
# [15] = tested on: E. faecalis SMK box C76U mutant RNA; experiment: as above; details: C76U wobble mutation
# Excerpt: as §6
# [16] = tested on: E. faecalis SMK box G26A mutant RNA; experiment: as above
# Excerpt: as §6
# [17] = tested on: E. faecalis SMK box C25U mutant RNA; experiment: as above
# Excerpt: as §6
# [18] = tested on: E. faecalis SMK box RNA with linker region replaced by poly(A)6; experiment: as above; details: 11-nt linker replaced with poly(A)6
# Excerpt: as §6
# [19] = tested on: E. faecalis SMK box U72C mutant RNA; experiment: as above
# Excerpt: as §6
# [20] = tested on: E. faecalis SMK box C25U G90A double mutant RNA; experiment: as above; details: C25U G90A double mutation
# Excerpt: as §6
# [21] = tested on: E. faecalis SMK box C76U G88A mutant RNA; experiment: as above; details: C76U and G88A combined
# Excerpt: as §6
# [22] = tested on: E. faecalis SMK box U65 deletion mutant RNA; experiment: as above
# Excerpt: as §6
# [23] = tested on: E. faecalis SMK box U65C mutant RNA; experiment: as above; details: U65C mutation
# Excerpt: as §6
# [24] = tested on: E. faecalis SMK box RNA with poly(A)6 linker and G88 and G89 mutated to adenosine; experiment: as above; details: poly(A)6 linker plus G88 and G89 to adenosine
# Excerpt: as §6
# [25] = tested on: E. faecalis SMK box C24U G91A double mutant RNA; experiment: as above; details: C24U G91A double mutation
# Excerpt: as §6
# [26] = tested on: E. faecalis SMK box C24G mutant RNA; experiment: as above; details: C24G mutation
# Excerpt: as §6
# [27] = tested on: E. faecalis SMK box G90A mutant RNA; experiment: as above; details: G90A mutation (C25•A90 mismatch)
# Excerpt: as §6
# [28] = tested on: E. faecalis SMK box G88A mutant RNA; experiment: as above; details: G88A mismatch mutation
# Excerpt: as §6
# [29] = target: full-length E. faecalis metK RNA (wild-type 15-118 metK leader sequence); experiment: Apparent Kd determination by size-exclusion filtration (modified SAM binding assay); details: full-length transcript, positions 15-118; [3H]-SAM
# Procedure: (§7) The apparent equilibrium dissociation constants (Kd values) for the wild-type 15-118 metK leader sequence and the 53-nucleotide crystallization construct were determined using a modified SAM binding assay (J. Tomsic, et al., J. Bacteriol., 190, 823-833 (2007)). Briefly, T7 RNA polymerase transcribed RNA (1 μM) in 1× transcription buffer was refolded as described above and incubated with [^3H]-SAM ranging in concentration from 0.02 to 10 μM. Binding reactions were loaded onto Nanosep 3K Omega filters (Pall Life Sciences) and centrifuged briefly at 14,000 g to avoid large volume changes. The concentration of the RNA-[^3H]-SAM complex retained by the filter and the unbound SAM present in the flow through were determined by scintillation counting of known volumes, and nonlinear regression analyses were performed using Kaleida-Graph Version 3.51 (Synergy Software). Apparent Kd values represent the averages of at least two independent experiments for each construct with a margin of error≦5%.
# as §5
# [30] = target: SMK6 crystallization construct (53-nucleotide SMK box riboswitch); experiment: as above; parameters: species or system E. faecalis; details: 53-nt crystallization construct SMK6; [3H]-SAM
# Procedure: as §7, §5
# [31] = tested on: U72C mutant metK leader RNA; experiment: 2-AP fluorescence quenching; assay type: binding, E. faecalis; details: SAM concentrations up to 100 μM
# Procedure: as §2, §3, §4
# [32] = tested on: E. faecalis SMK box A93C mutant RNA; details: A93C mutation; cited from earlier work
# [33] = tested on: E. faecalis SMK box U22G A93C double mutant RNA; details: cited from earlier work
# [34] = tested on: E. faecalis SMK box U22G mutant RNA; details: U22G mutation; cited from earlier work
# [35] = Spizizen medium with methionine
compound,measurement,setting,value
"CSCC[C@H](N)C(=O)O [Met, methionine]",reduction in expression of lacZ reporter,[1],five
same,Ratio (−Met/+Met),[2],1.8
same,"Expression of metK-lacZ fusion, +Met (β-galactosidase activity)",[2]; [35],42 +/− 1.0
same,Ratio (−Met/+Met),[3],1.2
same,"Expression of metK-lacZ fusion, +Met (β-galactosidase activity)",[3]; [35],95 +/− 6.1
same,Ratio (−Met/+Met),[4],0.95
same,"Expression of metK-lacZ fusion, +Met (β-galactosidase activity)",[4]; [35],82 +/− 16
same,Ratio (−Met/+Met),[5],1.5
same,"Expression of metK-lacZ fusion, +Met (β-galactosidase activity)",[5]; [35],15 +/− 2.9
same,Ratio (−Met/+Met),[6],5.0
same,"Expression of metK-lacZ fusion, +Met (β-galactosidase activity)",[6]; [35],24 +/− 5.5
same,Ratio (−Met/+Met),[7],4.4
same,"Expression of metK-lacZ fusion, +Met (β-galactosidase activity)",[7]; [35],2.5 +/− 0.72
same,Ratio (−Met/+Met),[8],1.4
same,"Expression of metK-lacZ fusion, +Met (β-galactosidase activity)",[8]; [35],160 +/− 13
same,Ratio (−Met/+Met),[9],1.6
same,"Expression of metK-lacZ fusion, +Met (β-galactosidase activity)",[9]; [35],200 +/− 22
same,Ratio (−Met/+Met),[10],2.8
same,"Expression of metK-lacZ fusion, +Met (β-galactosidase activity)",[10]; [35],80 +/− 5.0
"Nc1ncnc2c1ncn2[C@@H]1O[C@H](CSCC[C@H](N)C(=O)O)[C@@H](O)[C@H]1O [SAH, S-adenosyl-L-homocysteine]",quenching of 2-AP fluorescence,[11],not observed
same,competition by unlabeled SAH,[12],no competition
"C[S+](CC[C@H](N)C(=O)[O-])C[C@H]1O[C@@H](n2cnc3c(N)ncnc32)[C@H](O)[C@@H]1O (some centres unmarked) [SAM, S-adenosyl methionine]",correct positioning of the 30S ribosomal subunit on the SMK box mRNA,[13],reduced
same,reduction in SAM binding activity,[14],80 fold
same,SAM binding activity retained,[15],59%
same,reduction of SAM binding,[16],five
same,SAM binding activity,[17]; C25U mutation (U25-G90 wobble pair),63%
same,SAM binding in vitro,[17]; C25U substitution,modest reduction
same,SAM binding activity,[18],did not affect
same,SAM binding in the filtration assay,[19]; U72C RNA,loss of SAM binding
same,decrease in SAM binding activity,[19]; U72C mutation,70 fold
same,SAM binding activity,[20],loss of SAM binding activity
same,"SAM binding, of the wild-type level",[21],32%
same,decrease in SAM binding activity,[22],20 fold
same,decrease in SAM binding activity,[23],5 fold
same,SAM binding,[24],dramatically reduced
same,SAM binding,[25],restored SAM binding
same,SAM binding,[26],loss of SAM binding
same,"SAM binding activity, of the wild type",[27],1.3%
same,reduction in SAM binding activity,[28],75 fold
same,pKd,[29],6.07
same,pKd,[30],6.24
same,quenching of 2-AP fluorescence,[31],No quenching; also recorded: no substantial change in fluorescence
same,SAM binding in vitro,[32],loss of SAM binding
same,SAM binding,[33],restores SAM binding
same,pKd,"[11]; 2-AP fluorescence, excitation 310 nm, emission 375 nm, read-out: apparent Kd",5.99 and 6.00
same,quenching of 2-AP fluorescence,[11],concentration-dependent quenching
same,SAM binding in vitro,[34],loss of SAM binding
